# Laboratory results: publication PMC7993274 (Clinical and Translational Science, 2020)
# Test: Plasma PK, multiple ascending dose
# Type: in vivo, human
# Conditions: for AUCτ (dn) / Cmax (dn): dose normalized; for AUCτ (dn) / Cmax (dn) / AUCτ / Cmax: geometric mean (CV %); for Tmax: median (range); for t1/2: arithmetic mean (SD)
# [1] = MAD day 1 fed Japanese cohort 400 mg q.d.
# [2] = MAD day 10 fed Japanese cohort 400 mg q.d.
smiles,measurement,setting,value
Cn1cc(-c2cn3nccc3c(-c3cnn([C@]4(CC#N)C[C@@H](C#N)C4)c3)n2)cn1 [PF‐06826647],dose proportionality of AUCτ and Cmax,MAD 30–400 mg q.d.,less‐than‐dose‐proportional
same,dose proportionality of AUCτ and Cmax,"MAD 400–1,200 mg q.d.",dose‐proportional
same,AUCτ (dn),MAD day 1 fed 30 mg q.d.,22.1 (25) ng.hour/mL/mg
same,Cmax (dn),MAD day 1 fed 30 mg q.d.,2.8 (24) ng/mL/mg
same,AUCτ,MAD day 1 fed 30 mg q.d.,662.8 (25) ng.hour/mL
same,Cmax,MAD day 1 fed 30 mg q.d.,83.5 (24) ng/mL
same,Tmax,MAD day 1 fed 30 mg q.d.,3.0 (2.0–6.0) hour
same,AUCτ (dn),MAD day 1 fed 100 mg q.d.,18.0 (23) ng.hour/mL/mg
same,Cmax (dn),MAD day 1 fed 100 mg q.d.,2.7 (20) ng/mL/mg
same,AUCτ,MAD day 1 fed 100 mg q.d.,"1,803.0 (23) ng.hour/mL"
same,Cmax,MAD day 1 fed 100 mg q.d.,267.2 (20) ng/mL
same,Tmax,MAD day 1 fed 100 mg q.d.,4.0 (1.0–4.0) hour
same,AUCτ,"MAD day 1 fed 200 mg b.i.d., tau = 12 hours","1,646.0 (70) ng.hour/mL"
same,Cmax (dn),MAD day 1 fed 200 mg b.i.d.,1.5 (67) ng/mL/mg
same,Cmax,MAD day 1 fed 200 mg b.i.d.,289.8 (67) ng/mL
same,Tmax,MAD day 1 fed 200 mg b.i.d.,4.0 (2.0–6.0) hour
same,AUCτ (dn),MAD day 1 fed 400 mg q.d.,11.1 (67) ng.hour/mL/mg
same,Cmax (dn),MAD day 1 fed 400 mg q.d.,1.5 (33) ng/mL/mg
same,AUCτ,MAD day 1 fed 400 mg q.d.,"4,424.0 (67) ng.hour/mL"
same,Cmax,MAD day 1 fed 400 mg q.d.,585.9 (33) ng/mL
same,Tmax,MAD day 1 fed 400 mg q.d.,3.0 (2.0–6.0) hour
same,AUCτ (dn),"MAD day 1 fed 1,200 mg q.d.",14.2 (20) ng.hour/mL/mg
same,Cmax (dn),"MAD day 1 fed 1,200 mg q.d.",1.7 (10) ng/mL/mg
same,AUCτ,"MAD day 1 fed 1,200 mg q.d.","17,090.0 (20) ng.hour/mL"
same,Cmax,"MAD day 1 fed 1,200 mg q.d.","2,023.0 (10) ng/mL"
same,Tmax,"MAD day 1 fed 1,200 mg q.d.",2.0 (2.0–4.0) hour
same,AUCτ,[1],"6,038.0 (29) ng.hour/mL"
same,Cmax,[1],695.5 (19) ng/mL
same,Tmax,[1],4.0 (2.0–4.0) hour
same,median Tmax,"MAD day 10, standard meal, all doses (30–1,200 mg)",4 h
same,t1/2,MAD day 10 fed 30 mg q.d.,8.8 (5.8) hour
same,AUCτ (dn),MAD day 10 fed 30 mg q.d.,25.1 (32) ng.hour/mL/mg
same,Cmax (dn),MAD day 10 fed 30 mg q.d.,2.8 (27) ng/mL/mg
same,AUCτ,MAD day 10 fed 30 mg q.d.,752.9 (32) ng.hour/mL
same,Cmax,MAD day 10 fed 30 mg q.d.,85.3 (27) ng/mL
same,Tmax,MAD day 10 fed 30 mg q.d.,4.0 (4.0–6.0) hour
same,t1/2,MAD day 10 fed 100 mg q.d.,12.7 (12.7) hour
same,AUCτ (dn),MAD day 10 fed 100 mg q.d.,19.5 (33) ng.hour/mL/mg
same,Cmax (dn),MAD day 10 fed 100 mg q.d.,2.6 (30) ng/mL/mg
same,AUCτ,MAD day 10 fed 100 mg q.d.,"1,952.0 (33) ng.hour/mL"
same,Cmax,MAD day 10 fed 100 mg q.d.,263.2 (30) ng/mL
same,Tmax,MAD day 10 fed 100 mg q.d.,4.0 (2.0–4.0) hour
same,AUCτ,"MAD day 10 fed 200 mg b.i.d., tau = 12 hours","2,010.0 (49) ng.hour/mL"
same,t1/2,MAD day 10 fed 200 mg b.i.d.,26.9 (8.1) hour
same,Cmax (dn),MAD day 10 fed 200 mg b.i.d.,1.7 (46) ng/mL/mg
same,Cmax,MAD day 10 fed 200 mg b.i.d.,339.5 (46) ng/mL
same,Tmax,MAD day 10 fed 200 mg b.i.d.,4.0 (2.0–4.0) hour
same,t1/2,MAD day 10 fed 400 mg q.d.,7.5 (2.6) hour
same,AUCτ (dn),MAD day 10 fed 400 mg q.d.,13.6 (57) ng.hour/mL/mg
same,Cmax (dn),MAD day 10 fed 400 mg q.d.,1.7 (37) ng/mL/mg
same,AUCτ,MAD day 10 fed 400 mg q.d.,"5,420.0 (57) ng.hour/mL"
same,Cmax,MAD day 10 fed 400 mg q.d.,667.3 (37) ng/mL
same,Tmax,MAD day 10 fed 400 mg q.d.,4.0 (2.0–6.0) hour
same,t1/2,"MAD day 10 fed 1,200 mg q.d.",34.3 (21.9) hour
same,AUCτ (dn),"MAD day 10 fed 1,200 mg q.d.",12.4 (31) ng.hour/mL/mg
same,Cmax (dn),"MAD day 10 fed 1,200 mg q.d.",1.5 (21) ng/mL/mg
same,AUCτ,"MAD day 10 fed 1,200 mg q.d.","14,890.0 (31) ng.hour/mL"
same,Cmax,"MAD day 10 fed 1,200 mg q.d.","1,855.0 (21) ng/mL"
same,Tmax,"MAD day 10 fed 1,200 mg q.d.",4.0 (2.0–4.0) hour
same,t1/2,[2],7.4 (4.8) hour
same,AUCτ,[2],"7,194.0 (20) ng.hour/mL"
same,Cmax,[2],887.0 (11) ng/mL
same,Tmax,[2],4.0 (2.0–6.0) hour
same,plasma accumulation,"after multiple dosing, q.d. and b.i.d.",< 1.5 fold
same,steady‐state reached by,both q.d. and b.i.d. dosing,≤ 2 days
